Laboratory results taken from patent US20250114460A1, “NOVEL PLK1 DEGRADATION INDUCING COMPOUND” (UPPTHERA, INC., priority 2021, published 2025).

Experiments:
PLK1 = target: T1, PLK1 (Homo sapiens, UniProt P53350); test: Luciferase assay for PLK1 in HeLa LgBit (Plk1-HiBit KI) cell line; type: cell-based; conditions: 300 nM compound, luminescence after 9 hours
T1 construct: endogenous in cells; host or cells: HeLa LgBit (Plk1-HiBit KI): HeLa stably expressing LgBit, with a CRISPR/Cas9 knock-in of HiBit at the endogenous PLK1 locus
T1 sequence (P53350 whole entry): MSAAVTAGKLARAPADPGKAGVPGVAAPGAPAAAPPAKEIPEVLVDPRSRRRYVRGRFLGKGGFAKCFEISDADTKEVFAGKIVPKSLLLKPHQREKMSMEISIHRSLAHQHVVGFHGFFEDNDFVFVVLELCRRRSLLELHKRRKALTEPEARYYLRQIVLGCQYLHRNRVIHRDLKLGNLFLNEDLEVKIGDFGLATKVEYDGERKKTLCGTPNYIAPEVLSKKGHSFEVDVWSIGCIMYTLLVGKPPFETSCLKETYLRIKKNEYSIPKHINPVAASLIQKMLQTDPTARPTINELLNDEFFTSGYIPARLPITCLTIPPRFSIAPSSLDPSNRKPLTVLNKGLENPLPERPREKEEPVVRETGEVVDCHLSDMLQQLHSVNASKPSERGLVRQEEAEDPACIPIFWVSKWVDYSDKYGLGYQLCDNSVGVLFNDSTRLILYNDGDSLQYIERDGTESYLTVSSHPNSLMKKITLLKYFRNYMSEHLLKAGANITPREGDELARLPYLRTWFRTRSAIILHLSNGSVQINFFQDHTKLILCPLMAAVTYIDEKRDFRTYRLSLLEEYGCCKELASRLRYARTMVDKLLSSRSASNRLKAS
Procedure, shortened: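 HeLa cells stably expressing LgBit, with HiBit knocked in at the C-terminus of endogenous Plk1, released from a 24 h 2 mM thymidine block and grown 18 h. Endurazine added, then compound at 300 nM; luminescence tracked in real time, expressed as ratio to DMSO.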

NCI-H526 cell line = test: Cell viability assay for H526 cell (EZ-Cytox); type: cell-based; conditions: Homo sapiens, NCI-H526, 120 h; H526 cells, 5 days, 3000 nM to 0.46 nM
Protocol: (1) Culture of NCI-H526 Cell Line
(2) Treatment of Compounds of the Present Invention and Method of Cell Viability Assay
After treating the compound to each well to make the total volume of 200 μL, it was cultured in a CO2 incubator (Thermo Fisher Science, Cat. No. 4111) for 5 days.
The absorbance of the completely cultured sample was measured by setting the wavelength of a plate reader (BMG Labtech, CLARIOstar Plus) to […], and was measured after shaking for 3 minutes in a plate reader before measurement.
In Table 3, Activity represents IC50 value of each Exemplary Compound treatment group to H526 cell line (A: <30 nM, B: <50 nM, C: <100 nM, D: <200 nM, E: <400 nM).

Activity: ratio of the luminescense value of each Exemplary Compound treatment group to DMSO treatment group (PLK1)	SMILES	IC50 (NCI-H526 cell line)
++ (++<0.6)	COc1cc(C(=O)NN2CCC(N3CC4(CCN(c5cccc6c5CN(C5CCC(=O)NC5=O)C6=O)CC4)C3)CC2)ccc1Nc1ncc2c(n1)N(C(C)C)CC(F)(F)C(=O)N2C (stereo not shown) [Compound 218, 4-((7,7-difluoro-9-isopropyl-5-methyl-6-oxo-6,7,8,9-tetrahydro-5H-pyrimido[4,5-b][1,4]diazepin-2-yl)amino)-N-(4-(7-(2-(2,6-dioxopiperidin-3-yl)-1-oxoisoindolin-4-yl)-2,7-diazaspiro[3.5]nonan-2-yl)piperidin-1-yl)-3-methoxybenzamide]	< 50 nM
+++ (+++: <0.3)	COc1cc(C(=O)NC2CCN(CC3CN(c4cccc5c4C(=O)N(C4CCC(=O)NC4=O)C5=O)C3)CC2)ccc1Nc1ncc2c(n1)N(C1CCCC1)CC(F)(F)C(=O)N2C (stereo not shown) [Compound 135, 4-((9-cyclopentyl-7,7-difluoro-5-methyl-6-oxo-6,7,8,9-tetrahydro-5H-pyrimido[4,5-b][1,4]diazepin-2-yl)amino)-N-(1-((1-(2-(2,6-dioxopiperidin-3-yl)-1,3-dioxoisoindolin-4-yl)azetidin-3-yl)methyl)piperidin-4-yl)-3-methoxybenzamide]	< 50 nM
++ (++<0.6)	COc1cc(C(=O)N2CCC(N3CCN(CCOCCCNc4cccc5c4C(=O)N(C4CCC(=O)NC4=O)C5=O)CC3)CC2)c(F)cc1Nc1ncc2c(n1)N(C1CCCC1)CC(F)(F)C(=O)N2C (stereo not shown) [Compound 190, 4-((3-(2-(4-(1-(4-((9-cyclopentyl-7,7-difluoro-5-methyl-6-oxo-6,7,8,9-tetrahydro-5H-pyrimido[4,5-b][1,4]diazepin-2-yl)amino)-2-fluoro-5-methoxybenzoyl)piperidin-4-yl)piperazin-1-yl)ethoxy)propyl)amino)-2-(2,6-dioxopiperidin-3-yl)isoindoline-1,3-dione]	< 30 nM
+++ (+++: <0.3)	COc1cc(C(=O)NC2CCCN(C(=O)N3CCN(c4cccc5c4C(=O)N(C4CCC(=O)NC4=O)C5=O)CC3)C2)ccc1Nc1ncc2c(n1)N(C1CCCC1)CC(F)(F)C(=O)N2C (stereo not shown) [Compound 145, 4-((9-cyclopentyl-7,7-difluoro-5-methyl-6-oxo-6,7,8,9-tetrahydro-5H-pyrimido[4,5-b][1,4]diazepin-2-yl)amino)-N-(1-(4-(2-(2,6-dioxopiperidin-3-yl)-1,3-dioxoisoindolin-4-yl)piperazine-1-carbonyl)piperidin-3-yl)-3-methoxybenzamide]	< 50 nM
+++ (+++: <0.3)	COc1cc(C(=O)N[C@H]2CCCN(C(=O)CN3CCN(c4cccc5c4C(=O)N(C4CCC(=O)NC4=O)C5=O)CC3)C2)ccc1Nc1ncc2c(n1)N(C1CCCC1)CC(F)(F)C(=O)N2C (stereo partly drawn) [Compound 147, 4-((9-cyclopentyl-7,7-difluoro-5-methyl-6-oxo-6,7,8,9-tetrahydro-5H-pyrimido[4,5-b][1,4]diazepin-2-yl)amino)-N-((3S)-1-(2-(4-(2-(2,6-dioxopiperidin-3-yl)-1,3-dioxoisoindolin-4-yl)piperazin-1-yl)acetyl)piperidin-3-yl)-3-methoxybenzamide]	< 50 nM
+++ (+++: <0.3)	COc1cc(C(=O)NC2CCN(CC3CN(c4ccc5c(c4)C(=O)N(C4CCC(=O)NC4=O)C5=O)C3)CC2)ccc1Nc1ncc2c(n1)N(C1CCCC1)CC(F)(F)C(=O)N2C (stereo not shown) [Compound 134, 4-((9-cyclopentyl-7,7-difluoro-5-methyl-6-oxo-6,7,8,9-tetrahydro-5H-pyrimido[4,5-b][1,4]diazepin-2-yl)amino)-N-(1-((1-(2-(2,6-dioxopiperidin-3-yl)-1,3-dioxoisoindolin-5-yl)azetidin-3-yl)methyl)piperidin-4-yl)-3-methoxybenzamide]	< 30 nM
++ (++<0.6)	COc1cc(C(=O)NC2CCN(C(=O)CN3CCN(c4ccc5c(c4)C(=O)N(C4CCC(=O)NC4=O)C5=O)CC3)CC2)ccc1Nc1ncc2c(n1)N(C1CCCC1)CC(F)(F)C(=O)N2C (stereo not shown) [Compound 127, 4-((9-cyclopentyl-7,7-difluoro-5-methyl-6-oxo-6,7,8,9-tetrahydro-5H-pyrimido[4,5-b][1,4]diazepin-2-yl)amino)-N-(1-(2-(4-(2-(2,6-dioxopiperidin-3-yl)-1,3-dioxoisoindolin-5-yl)piperazin-1-yl)acetyl)piperidin-4-yl)-3-methoxybenzamide]	< 100 nM

Second part, the compound before the results:

SMILES	Activity: ratio of the luminescense value of each Exemplary Compound treatment group to DMSO treatment group (PLK1)	IC50 (NCI-H526 cell line)
COc1cc(C(=O)NN2CCN(C(=O)CCCNc3cccc4c3C(=O)N(C3CCC(=O)NC3=O)C4=O)CC2)c(F)cc1Nc1ncc2c(n1)N(C1CCCC1)CC(F)(F)C(=O)N2C (stereo not shown) [Compound 29, 4-((9-cyclopentyl-7,7-difluoro-5-methyl-6-oxo-6,7,8,9-tetrahydro-5H-pyrimido[4,5-b][1,4]diazepin-2-yl)amino)-N-(4-(4-((2-(2,6-dioxopiperidin-3-yl)-1,3-dioxoisoindolin-4-yl)amino)butanoyl)piperazin-1-yl)-2-fluoro-5-methoxybenzamide]	++ (++<0.6)	< 30 nM
COc1cc(C(=O)N2CCC(CCCN3CCN(c4ccc5c(c4)C(=O)N(C4CCC(=O)NC4=O)C5=O)CC3)CC2)ccc1Nc1ncc2c(n1)N(C1CCCC1)CC(F)(F)C(=O)N2C (stereo not shown) [Compound 99, 5-(4-(3-(1-(4-((9-cyclopentyl-7,7-difluoro-5-methyl-6-oxo-6,7,8,9-tetrahydro-5H-pyrimido[4,5-b][1,4]diazepin-2-yl)amino)-3-methoxybenzoyl)piperidin-4-yl)propyl)piperazin-1-yl)-2-(2,6-dioxopiperidin-3-yl)isoindoline-1,3-dione]	++ (++<0.6)	< 400 nM
COc1cc(C(=O)NC2CCN(CCOc3cccc4c3C(=O)N(C3CCC(=O)NC3=O)C4=O)CC2)c(Cl)cc1Nc1ncc2c(n1)N(C1CCCC1)CC(F)(F)C(=O)N2C (stereo not shown) [Compound 6, 2-chloro-4-((9-cyclopentyl-7,7-difluoro-5-methyl-6-oxo-6,7,8,9-tetrahydro-5H-pyrimido[4,5-b][1,4]diazepin-2-yl)amino)-N-(1-(2-((2-(2,6-dioxopiperidin-3-yl)-1,3-dioxoisoindolin-4-yl)oxy)ethyl)piperidin-4-yl)-5-methoxybenzamide]	+++ (+++: <0.3)	< 400 nM
COc1cc(C(=O)NC2CCN(C(=O)COc3cccc4c3C(=O)N(C3CCC(=O)NC3=O)C4=O)CC2)c(F)cc1Nc1ncc2c(n1)N(C1CCCC1)CC(F)(F)C(=O)N2C (stereo not shown) [Compound 37, 4-((9-cyclopentyl-7,7-difluoro-5-methyl-6-oxo-6,7,8,9-tetrahydro-5H-pyrimido[4,5-b][1,4]diazepin-2-yl)amino)-N-(1-(2-((2-(2,6-dioxopiperidin-3-yl)-1,3-dioxoisoindolin-4-yl)oxy)acetyl)piperidin-4-yl)-2-fluoro-5-methoxybenzamide]	++ (++<0.6)	< 400 nM
COc1cc(C(=O)NC2CCN(C(=O)CCCSc3cccc4c3C(=O)N(C3CCC(=O)NC3=O)C4=O)CC2)c(F)cc1Nc1ncc2c(n1)N(C1CCCC1)CC(F)(F)C(=O)N2C (stereo not shown) [Compound 42, 4-((9-cyclopentyl-7,7-difluoro-5-methyl-6-oxo-6,7,8,9-tetrahydro-5H-pyrimido[4,5-b][1,4]diazepin-2-yl)amino)-N-(1-(4-((2-(2,6-dioxopiperidin-3-yl)-1,3-dioxoisoindolin-4-yl)thio)butanoyl)piperidin-4-yl)-2-fluoro-5-methoxybenzamide]	++ (++<0.6)	< 100 nM
COc1cc(C(=O)N2CCC(CN3CCN(c4ccc5c(c4)C(=O)N(C4CCC(=O)NC4=O)C5=O)CC3)CC2)ccc1Nc1ncc2c(n1)N(C1CCCC1)CC(F)(F)C(=O)N2C (stereo not shown) [Compound 97, 5-(4-((1-(4-((9-cyclopentyl-7,7-difluoro-5-methyl-6-oxo-6,7,8,9-tetrahydro-5H-pyrimido[4,5-b][1,4]diazepin-2-yl)amino)-3-methoxybenzoyl)piperidin-4-yl)methyl)piperazin-1-yl)-2-(2,6-dioxopiperidin-3-yl)isoindoline-1,3-dione]	++ (++<0.6)	< 400 nM
COc1cc(C(=O)NN2CCN(C3CCN(c4cccc5c4C(=O)N(C4CCC(=O)NC4=O)C5=O)C3)CC2)ccc1Nc1ncc2c(n1)N(C(C)C)CC(F)(F)C(=O)N2C (stereo not shown) [Compound 52, 4-((7,7-difluoro-9-isopropyl-5-methyl-6-oxo-6,7,8,9-tetrahydro-5H-pyrimido[4,5-b][1,4]diazepin-2-yl)amino)-N-(4-(1-(2-(2,6-dioxopiperidin-3-yl)-1,3-dioxoisoindolin-4-yl)pyrrolidin-3-yl)piperazin-1-yl)-3-methoxybenzamide]	++ (++<0.6)	< 30 nM
